# Like-named read-outs stand apart in the source and are kept apart here.
# B1: Enterococcus faecium serine hydroxymethyltransferase (enzyme)
# chain: VDYKTFDPDLWAAIAKEEERQEHNLELIASENFVSEAVMAAQGSILTNKYAEGYPGHRYYGGCEFVDIVENLAIDRAKELFGAKFANVQPHSGSQANTAAYLALVEPGDTILGMDLSAGGHLTHGSPVNFSGKTYHFVAYGVDPTTEVIDYNVVRILARKHQPKLIVAGASAYGRTIDFAKFREIADEVGAKLMVDMAHIAGLVAAGLHPNPVPYADITTTTTHKTLRGPRGGMILTNDEALAKKINSAVFPGIQGGPLEHVIAGKAVAFKEALDPAFKEYSEQIIANAKAMVKVFNQAIGTRVISGATDNHLMLIDVRELGINGKEAESILDSVNITVNKNSIPFETLSPFKTSGIRIGTPAITTRGFKEEDAVKVAELVVKALQAKDDNAQLDEVKTGVRELTEKFPLHKK
# modifications: pyridoxal 5'-phosphate (PLP) covalently linked as a Schiff's base to K226 (in the efmSHMT/(+)-SHIN-1 structure; relocated to Ser or Gly in the ternary complexes)
# notes: theoretical monomer molecular weight 44.7 kDa; A few vector residues may remain at the N-terminus after PreScission cleavage; also called efmSHMT; E. faecium SHMT; source: E. coli BL21(DE3), purified (HisTrap, PreScission digestion, HiTrap Q, Superdex 75); not shown: His tag, N-terminal, cleaved
# Columns and labels:
# E. faecium [1] = assay: Antibacterial activity evaluation (turbidity, OD600); type: cell-based, Enterococcus faecium (JCM5804); details: for 50% effective concentration (EC50): growth of E. faecium
# Procedure: (§1) E. faecium and E. faecalis were diluted to turbidity equivalents that matched 1.0 McFarland (McF) standard in distilled water (S. aureus and E. coli were also diluted to 0.5 McF), and additionally diluted 1:200 in Mueller–Hinton (MH) broth. The designated concentrations of the tested compounds were prepared by ten-fold serial dilutions directly in 96-well microtiter plates (IWAKI, Shizuoka, Japan), as previously described. […] The other compounds were serially diluted from 20 μM downwards (final concentration, 10 μM). […] Positive control wells included bacteria without any compound, and the negative control wells only contained MH broth. […] The optical density at 600 nm (OD600) was measured using a GloMax microtiter plate reader (Promega, WI, USA), and the EC50 values of each test compound and standard error were calculated by Microsoft Excel function, AVERAGE and STDEV/SQRT.
# efmSHMT [2] = target: efmSHMT (Enterococcus faecium, UniProt I3U4H4, M1V); assay: biochemical; type: binding
# Procedure: After adding Me-THF, the efmSHMT solution was incubated for 30 min at room temperature. The optical density at 500 and 600 nm (OD500 and OD600) were then measured using a nanodrop spectrophotometer[24],[25]. OD600 was used as the background. After detection, each concentration of inhibitor was added to the efmSHMT solution and incubated for 30 min at room temperature. OD500 and OD600 were measured. The relative OD500 intensity was calculated as relative OD500 = (OD500 – OD600)/(MAXOD500 – OD600), where MAXOD500 is the average OD500 value in the presence of 1000, 2000 and 4000 μM Me-THF without inhibitors. […] Here, IC50 is the concentration of inhibitor added to the efmSHMT solution and [Me-THF] is the EC50 in the presence of the inhibitor concentration. [EC50 without inhibitor] is the EC50 of Me-THF in the absence of the inhibitor.
# E. faecium [3] = assay: Bacterial viability assay (Microbial Viability Assay Kit-WST, OD450); type: cell-based, Enterococcus faecium; details: for EC50: Enterococcus faecium
# Procedure: Living E. faecium were determined using the Microbial Viability Assay Kit-WST (DOJINDO, Tokyo, Japan). […] Positive control wells included bacteria seeded into MH broth without compounds, and the negative control wells contained MH broth only. […] Five microlitres of the colouring reagent were added to each well of the 96-well plate every 2 h after starting incubation with each compound.
# E. faecalis = assay: Antibacterial activity evaluation (turbidity, OD600); type: cell-based, Enterococcus faecalis (JCM7783); details: E. faecalis JCM7783
# Procedure: as §1
# efmSHMT [4] = type: binding, Enterococcus faecium; details: DSF; final drug concentration 50 μM
# Procedure: Protein samples were prepared as 20 μL aliquots containing 0.1 mg/mL protein (efmSHMT/ecSHMT), 1 μL of the ligand in DMSO (final drug concentration, 50 μM) and 2% or 4% SYPRO Orange (Invitrogen, MA, USA). […] Melting points were evaluated as the half-point of the maximum intensity of each curve.
# ecSHMT = target: T1, ecSHMT (Escherichia coli, UniProt P0A825); assay: Thermal stability analysis using differential scanning fluorimetry (DSF); type: binding, E. coli; details: final drug concentration 50 μM
# T1 construct: His tag (followed by PreScission protease cleavage site) (N, cleaved yes); made in house; host or cells: E. coli BL21(DE3)
# Procedure: Protein samples were prepared as 20 μL aliquots containing 0.1 mg/mL protein (efmSHMT/ecSHMT), 1 μL of the ligand in DMSO (final drug concentration, 50 μM) and 2% or 4% SYPRO Orange (Invitrogen, MA, USA). Measurements were taken using StepOnePlus real-time PCR (Thermo Fisher Scientific) (temperature increment, 1.8%; range, 20–95 °C). Melting points were evaluated as the half-point of the maximum intensity of each curve.
# E. faecium [5] = assay: Antibacterial assay with an excess concentration of biomolecules (Ser, Gly, inosine, dT, FA); type: cell-based, Enterococcus faecium (JCM5804)
# Procedure: as §1
# The ratio of the control EC50 (no competitors added) to the experimental EC50 (competitors added) was calculated for each test substance.
# S. aureus = assay: Antibacterial activity evaluation (turbidity, OD600); type: cell-based, Staphylococcus aureus (ATCC29213); details: S. aureus ATCC29213
# Procedure: as §1
# E. coli = assay: as above; type: cell-based, Escherichia coli (ATCC25922); details: E. coli ATCC25922
# Procedure: as §1
# [6] = cited from earlier work
# [7] = target: the molecule itself; assay: dynamic light scattering; 25 °C, Zetasizer NanoS, efmSHMT at 0.5 mg/mL, in triplicate; hydrodynamic radius 4.209 nm
# efmSHMT (Enterococcus faecium, UniProt I3U4H4, M1V), sequence (I3U4H4 whole entry M1V): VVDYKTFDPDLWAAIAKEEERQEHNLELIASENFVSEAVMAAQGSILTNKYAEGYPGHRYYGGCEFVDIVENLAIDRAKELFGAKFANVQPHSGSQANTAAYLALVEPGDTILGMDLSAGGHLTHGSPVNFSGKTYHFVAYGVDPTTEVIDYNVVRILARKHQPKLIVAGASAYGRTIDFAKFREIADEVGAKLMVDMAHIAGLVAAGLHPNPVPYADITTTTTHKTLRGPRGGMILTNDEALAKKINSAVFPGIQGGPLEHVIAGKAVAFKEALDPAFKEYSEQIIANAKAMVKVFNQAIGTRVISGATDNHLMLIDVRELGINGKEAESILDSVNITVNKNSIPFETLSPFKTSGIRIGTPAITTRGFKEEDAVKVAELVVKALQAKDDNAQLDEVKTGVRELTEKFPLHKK
# T1 sequence (P0A825 whole entry): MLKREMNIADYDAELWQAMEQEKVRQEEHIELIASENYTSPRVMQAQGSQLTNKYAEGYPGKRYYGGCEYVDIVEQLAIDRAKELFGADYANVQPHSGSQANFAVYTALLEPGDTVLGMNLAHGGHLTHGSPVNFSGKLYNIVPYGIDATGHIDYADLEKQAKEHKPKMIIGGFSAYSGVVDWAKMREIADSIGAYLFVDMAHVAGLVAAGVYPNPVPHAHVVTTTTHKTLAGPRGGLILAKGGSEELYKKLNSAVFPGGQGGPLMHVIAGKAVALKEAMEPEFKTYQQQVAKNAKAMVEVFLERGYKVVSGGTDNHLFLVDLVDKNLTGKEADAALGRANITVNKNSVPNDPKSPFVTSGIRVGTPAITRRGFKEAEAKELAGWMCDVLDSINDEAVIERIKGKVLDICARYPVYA
molecule,measurement,setting,value
Cc1n[nH]c2c1[C@](c1cc(CO)cc(-c3ccccc3)c1)(C(C)C)C(C#N)=C(N)O2 [(+)-SHIN-1],EC50,"E. faecium [1]; Enterococcus faecium, read-out: 50% effective concentration (EC50), growth of E. faecium, order of magnitude given",0.01 nM
same,EC50,"E. faecium [1]; Enterococcus faecium, E. faecium JCM5804, read-out: EC50",0.031 nM
same,EC50,"E. faecium [1]; Enterococcus faecium, E. faecium JCM5804, read-out: pEC50 ± S.E. (converted)",0.0316 nM
same,EC50,"E. faecium [1]; Enterococcus faecium, E. faecium, value of the response letter (earlier manuscript version), read-out: EC50 (turbidity)",0.044 ± 0.028 nM
same,50% effective concentration (EC50),E. faecium [1]; order of magnitude given,10^–10 to 10^–11 M
same,Ki,"efmSHMT [2]; Ki, 2.5 μM efmSHMT, 10 mM Gly and 100 μM Ser, Cheng-Prusoff",8.8 nM
same,Ki,"efmSHMT [2]; Ki, 5 μM efmSHMT, 10 mM Gly and 100 μM Ser, Cheng-Prusoff",28 nM
same,Ki,"efmSHMT [2]; actual Ki (bound, as the assay's efmSHMT detection limit is 2.5 μM), efmSHMT",< 8.8 nM
same,Ki,"efmSHMT [2]; pKi ± pSE, 2.5 μM efmSHMT, 10 mM Gly and 100 μM Ser",7.94 nM
same,Ki,"efmSHMT [2]; pKi ± pSE, 5 μM efmSHMT, 10 mM Gly and 100 μM Ser",25.1 nM
same,mode of antibacterial action (time-dependent bacterial viability),E. faecium [3],bacteriostatically
same,EC50,E. faecium [3]; relative bacterial viability after 14 h incubation,0.23 nM
same,EC50,E. faecium [3]; value of the response letter (earlier manuscript version),0.21 ± 0.13 nM
same,EC50,"E. faecalis; Enterococcus faecalis, read-out: EC50",> 2000 nM
same,EC50,"E. faecalis; Enterococcus faecalis, read-out: pEC50 ± S.E. (converted)",> 2000 nM
same,ΔTm (thermal stability of efmSHMT),efmSHMT [4],7 °C
same,binding to ecSHMT (DSF),ecSHMT,bound to ecSHMT
same,EC50,"E. faecium [5]; Enterococcus faecium, JCM5804, E. faecium JCM5804, 1 mM Inosine, read-out: EC50",0.36 nM
same,EC50,"E. faecium [5]; Enterococcus faecium, JCM5804, E. faecium JCM5804, 1 mM Inosine, read-out: pEC50 ± S.E. (converted)",0.398 nM
same,EC50,"E. faecium [5]; Enterococcus faecium, JCM5804, E. faecium JCM5804, 1 mM deoxythymidine, read-out: EC50",> 2000 nM
same,EC50,"E. faecium [5]; Enterococcus faecium, JCM5804, E. faecium JCM5804, 1 mM deoxythymidine, read-out: pEC50 ± S.E. (converted)",> 2000 nM
same,EC50,"E. faecium [5]; Enterococcus faecium, JCM5804, E. faecium JCM5804, 10 mM Glycine, read-out: EC50",0.12 nM
same,EC50,"E. faecium [5]; Enterococcus faecium, JCM5804, E. faecium JCM5804, 10 mM Glycine, read-out: pEC50 ± S.E. (converted)",0.126 nM
same,EC50,"E. faecium [5]; Enterococcus faecium, JCM5804, E. faecium JCM5804, 100 mM Serine, read-out: EC50",0.43 nM
same,EC50,"E. faecium [5]; Enterococcus faecium, JCM5804, E. faecium JCM5804, 100 mM Serine, read-out: pEC50 ± S.E. (converted)",0.398 nM
same,EC50,"E. faecium [5]; Enterococcus faecium, JCM5804, E. faecium JCM5804, 0.1 M folate, read-out: EC50",> 2000 nM
same,EC50,"E. faecium [5]; Enterococcus faecium, JCM5804, E. faecium JCM5804, 0.1 M folate, read-out: pEC50 ± S.E. (converted)",> 2000 nM
same,EC50,"S. aureus; Staphylococcus aureus, read-out: EC50",> 2000 nM
same,EC50,"S. aureus; Staphylococcus aureus, read-out: pEC50 ± S.E. (converted)",> 2000 nM
same,EC50,"E. coli; Escherichia coli, read-out: EC50",> 2000 nM
same,EC50,"E. coli; Escherichia coli, read-out: pEC50 ± S.E. (converted)",> 2000 nM
Cc1[nH]nc2c1C(c1cc(CO)cc(-c3ccccc3)c1)(C(C)C)C(C#N)=C(N)O2 (centres unmarked) [SHIN-1],pEC50 ± S.E.,E. faecium [1]; E. faecium JCM5804,9.3 ± 0.1
same,EC50,"E. faecium [1]; E. faecium JCM5804, read-out: EC50",0.5 nM
same,50% effective concentration (EC50),E. faecium [1]; order of magnitude given,10^–10 to 10^–11 M
same,pEC50 ± S.E.,E. faecalis,< 5.7
same,EC50,E. faecalis; read-out: EC50,> 2000 nM
same,pEC50 ± S.E.,"E. faecium [5]; E. faecium JCM5804, 1 mM Inosine",8.3 ± 0.3
same,EC50,"E. faecium [5]; E. faecium JCM5804, 1 mM Inosine, read-out: EC50",5.2 nM
same,pEC50 ± S.E.,"E. faecium [5]; E. faecium JCM5804, 1 mM deoxythymidine",< 5.7
same,EC50,"E. faecium [5]; E. faecium JCM5804, 1 mM deoxythymidine, read-out: EC50",> 2000 nM
same,pEC50 ± S.E.,"E. faecium [5]; E. faecium JCM5804, 10 mM Glycine",8.9 ± 0.0
same,EC50,"E. faecium [5]; E. faecium JCM5804, 10 mM Glycine, read-out: EC50",1.2 nM
same,pEC50 ± S.E.,"E. faecium [5]; E. faecium JCM5804, 100 mM Serine",8.5 ± 0.1
same,EC50,"E. faecium [5]; E. faecium JCM5804, 100 mM Serine, read-out: EC50",3.4 nM
same,pEC50 ± S.E.,"E. faecium [5]; E. faecium JCM5804, 0.1 M folate",< 5.7
same,EC50,"E. faecium [5]; E. faecium JCM5804, 0.1 M folate, read-out: EC50",> 2000 nM
same,pharmacokinetic properties,[6],lacked pharmacokinetic properties suitable
same,half-life,"[6]; response letter, ref (6) García-Cañaveras et al. 2021",too short to use in vivo
same,pEC50 ± S.E.,S. aureus,< 5.7
same,EC50,S. aureus; read-out: EC50,> 2000 nM
same,pEC50 ± S.E.,E. coli,< 5.7
same,EC50,E. coli; read-out: EC50,> 2000 nM
B1,stoichiometry N,[7],2
